Reference: patent publication US20110105436A1, “HETEROARYL COMPOUNDS, COMPOSITIONS, AND METHODS OF USE IN CANCER TREATMENT” (AUCKLAND UNISERVICES LIMITED, priority 2008, published 2011)

Columns and labels:
[1] = test system: RCC4, RCC4/VHL, SN12C and SN12C-VHL shRNA cells; test: Acidic vesicle organelles with acridine orange (FACS); assay type: cell-based; settings: for effect of inhibitor on autolysosomal acidification induced by STF-62247: 2 mM 3-MA or 1 μg/ml Brefeldin A with 1.25 μM STF-62247, 20 hrs; for acridine orange staining / amount of AVOs: 1.25 μM, VHL-deficient versus wild-type VHL cells
Procedure: Quantification of Acidic Vesicle Organelles with Acridine Orange. In acridine orange-stained cells, the cytoplasm and nucleus are bright green and dim red, whereas acidic compartments are bright red. The intensity of the red fluorescence is proportional to the degree of acidity. Following 20 hours of treatment with STF-62247 or analogs, cells were stained with 1 μg/ml of acridine orange for 15 min. Cells were trypsinized and then analyzed by flow cytometry using FACScan cytometer and CellQuest software.
(§1) A. VHL-deficient RCC4 and wild-type VHL were incubated in presence of 10 μM LY294002, or 1 μg/mlBrefeldin A with 1.25 μM of STF-62247 for 20 hrs and the presence of vacuoles was examined under light microscopy. B,C. LC3 processing was evaluated by Western blot after the treatment with Brefeldin A or LY294002 in presence or absence of STF-62247 as described above. Tubulin was used as loading control. D. Cells were treated with 1.25 μM of STF-62247 with or without 2 mM of 3-MA, 1 μg/ml of Brefeldin A for 20 hrs. For the last 15 min, acidic components were stained with 1 μg/ml of acridine orange and visualized under fluorescence microscope. […] F. Quantification of the FACS analysis. The data are calculated as the average of three different experiments as relative units of treated over untreated cells. The error bars are represented as the standard error of the mean (SEM).
A. RCC4 and RCC4/VHL were treated with 1.25 μM of each 19 analogs for 20 hours and the presence of vacuoles was examined under light microscopy. B. Western blot for LC3 after treatment with each compound. Tubulin was used as loading control. Ratio is the relative from the IC50 in RCC4/VHL cells/IC50 in RCC4 cells. C. Acidic vesicle organelles (AVO) measured by FACS analysis in cells treated with 1.25 μM of STF-62247 or with compounds 21, 15, 25, 47, and 53 and stained with acridine orange.

LC3 = LC3 processing by Western blot and immunostaining; assay type: cell-based; settings: for effect of inhibitor on vacuole formation and LC3-II induced by STF-62247: co-treatment with 1.25 μM STF-62247, 20 hrs, VHL-deficient RCC cells; for toxicity, vacuole formation and LC3-lipidated form (autophagy) of analogs: 1.25 μM, 20 hours, FIG. 5A-B
Procedure: Western blot analysis. After treatments, cells were lysed in urea buffer (9M urea, 75 mM Tris (pH 7.5), 150 mM b-mercaptoethanol), placed on ice for 10 minutes and sonicated briefly (15 seconds). Extracts were centrifugated at 8,000×g for 10 minutes to eliminate insoluble material. Lysates were quantitated using Bio-Rad protein Assay (Bio-Rad Laboratories) and 20-30 μg of proteins were separated on a 7.5% or 15% bis-acrylamide gels and then transferred onto PVDF membranes. Proteins were visualized using HIF-2α (Novus Biological), HIF-1α, pVHL and BiP (BD Biosciences), LC3 (MBL), Atg5, or α-tubulin antibodies.
Immunofluorescence staining. Cells were seeded on glass coverslips and at subconfluence, STF-62247 was added at 1.25 μM for RCC4 and 3.75 μM for SN12C. After 20 hours, cells were fixed in 3.7% formaldehyde for 10 min at room temperature and washed in PBS. Then cells were permeabilized in 0.2% Triton X-100 for 5 min at room temperature and washed in PBS. The coverslips were incubated with primary antibody LC3 diluted 1:500 in PBS containing 0.2% BSA for 1 hour at room temperature. Cells were washed three times in PBS-BSA and the bound primary antibody was detected using a fluorescein-conjugated secondary antibody (ALEXA) diluted 1:500 in PBS-BSA and incubated for 1 hour. Coverslips were washed and mounted in mounting medium from Vector Laboratories according to the manufacturer's instructions. Cells were examined with a confocal microscope
A. Phase contrast pictures of VHL-deficient RCC4 and SN12C-VHL shRNA cells and VHL-positive cells RCC4 and SN12C after 20 hrs of 1.25 μM STF-62247. B. Immunostaining for LC3 following STF-62247 treatment at 1.25 μM for 20 hrs with or without 2 mM of 3-MA in RCC4 with and without VHL cells. After treatment, cells were fixed, permeabilized and processed for the detection of punctuate staining by indirect immunofluorescence. C. Autophagic vacuoles stained with monodansylcadaverine (MDC). After STF-62247 treatment in the same conditions, MDC was added for the last 10 minutes. Cells were fixed, washed with PBS and observed directly under microscope. D. Western blot for LC3 in RCC4, RCC4/VHL, SN12C, and SN12C-VHL shRNA cells after STF-62247 treatment with or without 3-MA. Nutrient starvation (EBSS) is used as positive control. E. Western blot for LC3 in RCC4 and RCC4/VHL with different concentrations of STF-62247. Tubulin was used as loading control. F. Cell viability assay in VHL-deficient RCC4 and wild-type VHL cells treated with 1 mM of 3-MA, 1.25 μM of STF-62247 alone or in combination for 24 hrs. Viability is measured by trypan blue exclusion assay and is represented by the average of three different experiments in duplicate as the percent of treated on untreated cells. The error bars are represented as SEM.
as §1
B,C. LC3 processing was evaluated by Western blot after the treatment with U0126 or tunicamycin in presence or absence of STF-62247 as described above. Tubulin was used as loading control.

RCC4 cells = test: XTT assay in VHL-deficient RCC4 cells; assay type: cell-based; settings: Homo sapiens, 96 h, XTT assay, VHL-deficient RCC4 cells, four days
Method in brief: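 RCC4 cells with and without VHL seeded at 5000/well, then exposed next day to serially diluted compound (DMSO vehicle) for four days. Viability read by XTT (0.3 mg/ml) with PMS, 1-2 h at 37° C, absorbance at 450 nm.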

RCC4/VHL cells = test: XTT assay, RCC4/VHL versus RCC4 cells (selectivity ratio); assay type: cell-based; settings: for Ratio: Table 1, selectivity ratio, IC50 in RCC4/VHL cells/IC50 in RCC4 cells
Method in brief: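 RCC4 cells with or without VHL (5000/well) exposed to serially diluted compounds for four days. Viability read as XTT metabolism (0.3 mg/ml XTT plus PMS, 1-2 h, 37 °C) at 450 nm. Ratio is IC50 in RCC4/VHL over IC50 in RCC4.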

[2] = test system: VHL-deficient RCC4 and wild-type VHL cells; test: Cell viability by trypan blue exclusion; assay type: cell-based; settings: 1 mM 3-MA, 1.25 μM STF-62247, 24 hours, FIG. 2F
Procedure: Cell Viability and XTT assays. For cell viability, 100,000 cells were plated in a 12-well plate. The following day, 1.25 μM STF-62247 was added in the presence or absence of 1 mM 3-MA for 24 hours at 37° C. Cells were trypsinized and counted by trypan blue exclusion. For XTT assays, 5000 RCC4 with and without VHL cells or 2,500 SN12C with and without VHL shRNA cells were plated in 96-well plates. The following day, vehicle (DMSO), STF-62247 or each of 19 analogs were added to media by serial dilution. Four days later, the media was aspirated and XTT solution containing 0.3 mg/ml of XTT (Sigma Chemical Co) in Phenol Red-free media, 20% FCS and 2.65 mg/ml N-methyl dibenzopyrazine methyl sulfate (PMS) was added to the cells and incubated at 37° C. for 1-2 hours. Metabolism of XTT was quantified by measuring the absorbance at 450 nm on a plate reader.
A. Phase contrast pictures of VHL-deficient RCC4 and SN12C-VHL shRNA cells and VHL-positive cells RCC4 and SN12C after 20 hrs of 1.25 μM STF-62247. B. Immunostaining for LC3 following STF-62247 treatment at 1.25 μM for 20 hrs with or without 2 mM of 3-MA in RCC4 with and without VHL cells. […] Viability is measured by trypan blue exclusion assay and is represented by the average of three different experiments in duplicate as the percent of treated on untreated cells. […]

| SMILES | acridine orange staining / amount of AVOs [1] | IC50 (RCC4 cells; Table 1) [µM] | toxicity, vacuole formation and LC3-lipidated form (autophagy) of analogs (LC3) | Ratio (RCC4/VHL cells) | melting point [°C] | also measured |
| --- | --- | --- | --- | --- | --- | --- |
| C[C@H]1CCC/C=C/[C@@H]2C[C@H](O)C[C@H]2[C@H](O)/C=C/C(=O)O1 [Brefeldin A, reference compound] | – | – | – | – | – | effect of inhibitor on autolysosomal acidification induced by STF-62247 [1]: resulted in a decrease in autolysosomal acidification; effect of inhibitor on vacuole formation and LC3-II induced by STF-62247 (LC3): abolished the formation of autophagic vacuoles and LC3-II |
| Cc1cc(Nc2nc(-c3ccncc3)cs2)ccc1O [Compound 53, 2-Methyl-4-{[4-(4-pyridinyl)-1,3-thiazol-2-yl]amino}phenol] | not influenced | 70 | no toxicity or autophagy were observed | 2.3 | – | – |
| Cc1ccc(Nc2nc(-c3ccncc3)cs2)cc1 [Compound 21, N-(4-Methylphenyl)-4-(4-pyridinyl)-1,3-thiazol-2-amine] | consistertly higher in VHL-deficient cells | 2.5 | induced significant vacuole formation and the LC3-lipidated form | 20 | – | IC50 ratio (wild-type VHL/VHL-deficient cells) (RCC4/VHL cells; structure-activity text on Tables 1 and 2): high ratio |
| Oc1cccc(Nc2nc(-c3ccncc3)cs2)c1 [Compound 13, 3-{[4-(4-Pyridinyl)-1,3-thiazol-2-yl]amino}phenol] | not influenced | 28.5 | no toxicity or autophagy were observed | >3 | – | – |
| Oc1ccc(Nc2nc(-c3ccncc3)cs2)cc1 [Compound 25, 4-{[4-(4-Pyridinyl)-1,3-thiazol-2-yl]amino}phenol] | consistertly higher in VHL-deficient cells | 5.3 | induced significant vacuole formation and the LC3-lipidated form | 8 | – | – |
| N#CC(=C(/N)Sc1ccccc1N)/C(C#N)=C(\N)Sc1ccccc1N [Compound U0126, reference compound] | – | – | – | – | – | effect of inhibitor on vacuole formation and LC3-II induced by STF-62247 (LC3): had little effect on autophagy induced by STF-62247 |
| Cn1cnc(N)c2ncnc1-2 [Compound 3-MA, 3-methyladenine, reference compound] | – | – | – | – | – | effect of inhibitor on autolysosomal acidification induced by STF-62247 [1]: resulted in a decrease in autolysosomal acidification; viability of VHL-deficient cells treated with STF-62247 in presence of inhibitor [2]: partially restored; effect of inhibitor on vacuole formation and LC3-II induced by STF-62247 (LC3): abrogated |
| Cc1cccc(Nc2nc(-c3ccncc3)c(C(=O)NCCCN3CCOCC3)s2)c1 [Compound 94, 2-[(3-Methylphenyl)amino]-N-[3-(4-morpholinyl)propyl]-4-(4-pyridinyl)-1,3-thiazole-5-carboxamide] | – | > 40 | – | – | 190 to 192 | – |
| Cc1cccc(C)c1Nc1nc(-c2ccncc2)cs1 [Compound 137, N-(2,6-Dimethylphenyl)-4-(4-pyridinyl)-1,3-thiazol-2-amine] | – | > 40 | – | – | 208 to 210 | – |
| CCOC(=O)c1sc(Nc2cccc(C)c2)nc1-c1ccncc1 [Compound 88, Ethyl 2-[(3-Methylphenyl)amino]-4-(4-pyridinyl)-1,3-thiazole-5-carboxylate] | – | > 40 | – | – | 233 to 235 | – |
| N#Cc1ccc(Nc2nc(-c3ccncc3)cs2)cc1 [Compound 135, 4-{[4-(4-Pyridinyl)-1,3-thiazol-2-yl]amino}benzonitrile] | – | > 40 | – | – | > 300 | – |
| Cc1cccc(CNc2nc(-c3ccncc3)cs2)c1 [Compound 103, N-(3-Methylbenzyl)-4-(4-pyridinyl)-1,3-thiazol-2-amine] | – | > 40 | – | – | 192 to 194 | – |
| COc1cccc(Nc2nc(-c3ccncc3)cs2)c1 [Compound 15, N-(3-Methoxyphenyl)-4-(4-pyridinyl)-1,3-thiazol-2-amine] | consistertly higher in VHL-deficient cells | 3 | induced significant vacuole formation and the LC3-lipidated form | 17 | – | – |
| Cc1cccc(Nc2nc(-c3cc[n+]([O-])cc3)cs2)c1 [Compound 188, N-(3-Methylphenyl)-4-(1-oxido-4-pyridinyl)-1,3-thiazol-2-amine] | – | – | – | – | 162 to 164 | IC50 (RCC4 cells; Table 2): > 40 µM |
| Cc1cccc(Nc2nc(-c3ccncc3)c(C=O)s2)c1 [Compound 77, 2-[(3-Methylphenyl)amino]-4-(4-pyridinyl)-1,3-thiazole-5-carbaldehyde] | – | 15 | – | – | 220 to 223 | – |
